From the supplement of paper PMC13380429

Experiments:
Settings in all cases: 72 h
U2OS [1] = experiment: drug sensitivity score (DSS) for viability; higher = more toxic; extreme values may be limits of the assay
Caco-2 [2] = experiment: as above
Calu-3 [3] = experiment: as above
HepG2 [4] = experiment: as above
Vero E6 [5] = experiment: as above
U2OS [6] = experiment: cell viability relative to DMSO; higher = less toxic
Caco-2 [7] = experiment: as above
Calu-3 [8] = experiment: as above
HepG2 [9] = experiment: as above
Vero E6 [10] = experiment: as above
U2OS [11] = experiment: relative viability EC50 (midpoint between 100% and the lowest measured viability); higher = less toxic
Calu-3 [12] = experiment: as above
HepG2 [13] = experiment: as above
Vero E6 [14] = experiment: as above
Caco-2 [15] = experiment: as above

SMILES | drug sensitivity score (U2OS [1]) | drug sensitivity score (Caco-2 [2]) | drug sensitivity score (Calu-3 [3]) | drug sensitivity score (HepG2 [4]) | drug sensitivity score (Vero E6 [5]) | cell viability (U2OS [6]; 1 nM) [%] | cell viability (U2OS [6]; 10 nM) [%] | cell viability (U2OS [6]; 100 nM) [%] | cell viability (U2OS [6]; 1000 nM) [%] | cell viability (U2OS [6]; 10000 nM) [%] | cell viability (Caco-2 [7]; 1 nM) [%] | cell viability (Caco-2 [7]; 10 nM) [%] | cell viability (Caco-2 [7]; 100 nM) [%] | cell viability (Caco-2 [7]; 1000 nM) [%] | cell viability (Caco-2 [7]; 10000 nM) [%] | cell viability (Calu-3 [8]; 1 nM) [%] | cell viability (Calu-3 [8]; 10 nM) [%] | cell viability (Calu-3 [8]; 100 nM) [%] | cell viability (Calu-3 [8]; 1000 nM) [%] | cell viability (Calu-3 [8]; 10000 nM) [%] | cell viability (HepG2 [9]; 1 nM) [%] | cell viability (HepG2 [9]; 10 nM) [%] | cell viability (HepG2 [9]; 100 nM) [%] | cell viability (HepG2 [9]; 1000 nM) [%] | cell viability (HepG2 [9]; 10000 nM) [%] | cell viability (Vero E6 [10]; 1 nM) [%] | cell viability (Vero E6 [10]; 10 nM) [%] | cell viability (Vero E6 [10]; 100 nM) [%] | cell viability (Vero E6 [10]; 1000 nM) [%] | cell viability (Vero E6 [10]; 10000 nM) [%] | relative viability EC50 (U2OS [11]) [µM] | relative viability EC50 (Calu-3 [12]) [µM] | relative viability EC50 (HepG2 [13]) [µM] | relative viability EC50 (Vero E6 [14]) [µM] | relative viability EC50 (Caco-2 [15]) [µM]
O=C1CCc2ccc(OCCCCN3CCN(c4cccc(Cl)c4Cl)CC3)cc2N1 [aripiprazole] | 0 | 2.3 | 1.1 | 0.8 | 0 | 102 | 103 | 103 | 103 | 89.2 | 112 | 78 | 94.6 | 90.5 | 70.8 | 98.5 | 98.5 | 104 | 91.9 | 83.3 | 109 | 105 | 98.6 | 100 | 77.5 | 94.1 | 97.6 | 93.7 | 96.3 | 88.2 | > 10 | > 10 | > 10 | > 10 | –
CCCN(CCC)C(=O)C(CCC(=O)O)NC(=O)c1ccccc1 (stereo unspecified) [proglumide] | – | 0 | 0 | 0 | 0 | – | – | – | – | – | 102 | 105 | 95.7 | 104 | 102 | 100 | 113 | 104 | 89.9 | 96.2 | 98 | 104 | 107 | 109 | 106 | 104 | 100 | 98.8 | 97.8 | 107 | – | > 10 | > 10 | > 10 | > 10
c1ccc(CN(CC2=NCCN2)c2ccccc2)cc1 [antazoline] | 0 | 3.4 | 0 | 0 | 0 | 96.5 | 101 | 93.9 | 95 | 90.6 | 103 | 84.4 | 92.1 | 84 | 70.7 | 90.2 | 105 | 98.3 | 104 | 91.7 | 102 | 91.8 | 90.6 | 96.7 | 103 | 99.1 | 102 | 105 | 90.4 | 91.7 | > 10 | > 10 | > 10 | > 10 | –
CC(C)CC(=O)Nc1n[nH]c2c1CN(C(=O)C1CCN(C)CC1)C2(C)C | 8.5 | 5.8 | 5.2 | 10.9 | 0.2 | 101 | 102 | 94 | 68.7 | 15 | 99.1 | 98.9 | 85.6 | 76.9 | 51 | 98.7 | 90.7 | 93.6 | 89.6 | 37.6 | 103 | 115 | 102 | 51.9 | 9.7 | 103 | 106 | 104 | 100 | 85.7 | 1.32 | 1.89 | 0.95 | > 10 | –
CC(=O)Nc1ccc(OCC(O)CNC(C)C)cc1 (stereo unspecified) [practolol] | – | 0.4 | 0 | 0 | 0 | – | – | – | – | – | 107 | 93.5 | 81.2 | 91.7 | 92 | 108 | 114 | 111 | 100 | 99.7 | 94.1 | 105 | 97.3 | 109 | 87.3 | 110 | 102 | 106 | 106 | 93.7 | – | > 10 | > 10 | > 10 | > 10
C[C@]1(c2nc3c(C(N)=O)cccc3[nH]2)CCCN1 [veliparib] | 0 | – | 0 | 0 | – | 96.7 | 104 | 96.8 | 106 | 96.6 | – | – | – | – | – | 105 | 100 | 100 | 111 | 92.1 | 105 | 107 | 106 | 96.1 | 101 | – | – | – | – | – | > 10 | > 10 | > 10 | – | –
CC(=O)OCC(=O)[C@@]1(O)CC[C@H]2[C@@H]3CCC4=CC(=O)C=C[C@]4(C)[C@@]3(Cl)[C@@H](Cl)C[C@@]21C [dichlorisone-acetate] | – | 0 | 0 | 0 | 0 | – | – | – | – | – | 105 | 103 | 99.7 | 105 | 110 | 98.9 | 107 | 100 | 89.2 | 102 | 96.4 | 94.5 | 99 | 99.3 | 92.4 | 105 | 102 | 102 | 98.7 | 105 | – | > 10 | > 10 | > 10 | > 10
CCCCOc1ccc(-c2cncc(C(=O)NCc3cccnc3N3CCOCC3)c2)cc1Cl | 0 | 0.8 | 0 | 0 | 0 | 104 | 103 | 99.5 | 106 | 92.8 | 92.8 | 104 | 94.7 | 102 | 74.8 | 107 | 96.4 | 92.9 | 104 | 90.4 | 99.7 | 93 | 113 | 106 | 106 | 102 | 102 | 100 | 96.5 | 94.4 | > 10 | > 10 | > 10 | > 10 | –
